Laboratory results reported in the supplement of paper PMC11451515.

System: P12-Ichikawa
Test: cell viability relative to DMSO control; higher = less cytotoxic
Settings: 48 h
Outline: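 NOMO1 or SEM (500 cells/well) or P12-Ichikawa (1000 cells/well) leukemia cells were adapted for at least four passages in each medium. They were seeded in 1536-well plates (5 μl) and pin-dosed with library compounds in DMSO over an 11-point threefold series, 47 μM to 0.79 nM. CellTiter-Glo One luminescence was read after 48 h at 37°C. Viability is the per-plate percentage relative to DMSO wells, with cell-free wells as background.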

[1] = HPLM + 10% dialyzed FBS, 0.000781 µM
[2] = HPLM + 10% dialyzed FBS, 0.00234 µM
[3] = HPLM + 10% dialyzed FBS, 0.00702 µM
[4] = HPLM + 10% dialyzed FBS, 0.0211 µM
[5] = HPLM + 10% dialyzed FBS, 0.0632 µM
[6] = HPLM + 10% dialyzed FBS, 0.19 µM
[7] = HPLM + 10% dialyzed FBS, 0.569 µM
[8] = HPLM + 10% dialyzed FBS, 1.71 µM
[9] = HPLM + 10% dialyzed FBS, 5.12 µM
[10] = HPLM + 10% dialyzed FBS, 15.4 µM
[11] = HPLM + 10% dialyzed FBS, 46.1 µM
[12] = RPMI 5 mM glucose + 10% FBS, 0.000781 µM
[13] = RPMI 5 mM glucose + 10% FBS, 0.00234 µM
[14] = RPMI 5 mM glucose + 10% FBS, 0.00702 µM
[15] = RPMI 5 mM glucose + 10% FBS, 0.0211 µM
[16] = RPMI 5 mM glucose + 10% FBS, 0.0632 µM
[17] = RPMI 5 mM glucose + 10% FBS, 0.19 µM
[18] = RPMI 5 mM glucose + 10% FBS, 0.569 µM
[19] = RPMI 5 mM glucose + 10% FBS, 1.71 µM
[20] = RPMI 5 mM glucose + 10% FBS, 5.12 µM
[21] = RPMI 5 mM glucose + 10% FBS, 15.4 µM
[22] = RPMI 5 mM glucose + 10% FBS, 46.1 µM
[23] = RPMI 5 mM glucose + 10% dialyzed FBS, 0.000781 µM
[24] = RPMI 5 mM glucose + 10% dialyzed FBS, 0.00234 µM
[25] = RPMI 5 mM glucose + 10% dialyzed FBS, 0.00702 µM
[26] = RPMI 5 mM glucose + 10% dialyzed FBS, 0.0211 µM
[27] = RPMI 5 mM glucose + 10% dialyzed FBS, 0.0632 µM
[28] = RPMI 5 mM glucose + 10% dialyzed FBS, 0.19 µM
[29] = RPMI 5 mM glucose + 10% dialyzed FBS, 0.569 µM
[30] = RPMI 5 mM glucose + 10% dialyzed FBS, 1.71 µM
[31] = RPMI 5 mM glucose + 10% dialyzed FBS, 5.12 µM
[32] = RPMI 5 mM glucose + 10% dialyzed FBS, 46.1 µM
[33] = RPMI 5 mM glucose + 10% dialyzed FBS, 15.4 µM

Row | SMILES | cell viability [1] [%] | cell viability [2] [%] | cell viability [3] [%] | cell viability [4] [%] | cell viability [5] [%] | cell viability [6] [%] | cell viability [7] [%] | cell viability [8] [%] | cell viability [9] [%] | cell viability [10] [%] | cell viability [11] [%] | cell viability [12] [%] | cell viability [13] [%] | cell viability [14] [%] | cell viability [15] [%] | cell viability [16] [%] | cell viability [17] [%] | cell viability [18] [%] | cell viability [19] [%] | cell viability [20] [%] | cell viability [21] [%] | cell viability [22] [%] | cell viability [23] [%] | cell viability [24] [%] | cell viability [25] [%] | cell viability [26] [%] | cell viability [27] [%] | cell viability [28] [%] | cell viability [29] [%] | cell viability [30] [%] | cell viability [31] [%] | cell viability [32] [%] | cell viability [33] [%]
1 | CC[P](CC)(CC)=[Au][S][C@@H]1O[C@H](COC(C)=O)[C@@H](OC(C)=O)[C@H](OC(C)=O)[C@H]1OC(C)=O | 122 | 108 | 116 | 109 | 115 | 105 | 110 | 77.2 | 23 | 2.24 | 1.8 | 104 | 119 | 112 | 123 | 115 | 103 | 109 | 9.37 | 2.79 | 2.08 | 1.61 | 117 | 111 | 117 | 117 | 114 | 105 | 96.3 | 3.62 | 2.8 | 1.1 | 
2 | O=C(Nc1ccncc1)C(=O)c1cn(Cc2ccc(Cl)cc2)c2ccccc12 | 103 | 101 | 111 | 96.6 | 70.5 | 35 | 18.4 | 21.8 | 40.1 | 35.2 | 46.5 | 104 | 98.6 | 107 | 96.5 | 62.8 | 34.8 | 16.5 | 24.3 | 34.1 | 39.2 | 44.1 | 90.9 | 94.2 | 97.2 | 98.2 | 79.1 | 46.5 | 20.8 | 23.1 | 34.6 | 46.6 | 36.2
3 | CN(C)Cc1cccc(N/C(=C2\C(=O)Nc3cc(C(=O)N(C)C)ccc32)c2ccccc2)c1 | 95.7 | 105 | 110 | 101 | 119 | 114 | 111 | 115 | 103 | 93.2 | 42.3 | 90.7 | 114 | 108 | 109 | 114 | 111 | 113 | 106 | 96 | 90.3 | 65 | 100 | 111 | 111 | 117 | 120 | 111 | 114 | 118 | 103 | 64.4 | 98.2
4 | O=C(O)CCc1ccc(NCc2cccc(Oc3ccccc3)c2)cc1 | 94.5 | 107 | 102 | 104 | 105 | 111 | 108 | 109 | 108 | 119 | 104 | 99.3 | 105 | 111 | 105 | 118 | 111 | 109 | 109 | 110 | 122 | 118 | 88.6 | 96.5 | 103 | 110 | 103 | 104 | 103 | 104 | 100 | 99.9 | 98.6
5 | COc1ccccc1OCC(O)CN1CCN(CC(=O)Nc2c(C)cccc2C)CC1 (stereo not given) | 122 | 119 | 127 | 127 | 130 | 132 | 135 | 132 | 140 | 112 | 110 |  |  |  |  |  |  |  |  |  |  |  |  |  |  |  |  |  |  |  |  |  | 
6 | CC=CC1=C(C(=O)O)N2C(=O)[C@@H](NC(=O)[C@H](N)c3ccc(O)cc3)[C@H]2SC1.O | 97.8 | 110 | 121 | 105 | 126 | 90 | 116 | 111 | 113 | 13.8 | 15 | 88.6 | 103 | 111 | 109 | 120 | 115 | 104 | 112 | 107 | 17.7 | 13.7 | 100 | 108 | 107 | 113 | 118 | 109 | 110 | 116 | 114 | 18.8 | 45.3
7 | CCOC(=O)c1c(/C(C#N)=C\N)c2ccc(Cl)c(Cl)c2n1C | 90.1 | 94.9 | 84.9 | 97.5 | 91.7 | 92.2 | 92.1 | 91.6 | 84.7 | 83 | 91.7 | 88.1 | 88.7 | 85.5 | 94.8 | 83.2 | 86.3 | 81.1 | 91 | 82.8 | 81.2 | 87.4 | 84.5 | 86.2 | 89.9 | 92.8 | 90.6 | 96.9 | 87.9 | 88.7 | 89 | 90.8 | 92.8
8 | COc1ccc(CC2SC(=O)NC2=O)cc1C(=O)NCc1ccc(C(F)(F)F)cc1 (stereo not given) | 85.3 | 84.7 | 90.5 | 96 | 88.3 | 96.3 | 93.8 | 95 | 88.2 | 83.6 | 86.9 | 82.1 | 78.3 | 81 | 87 | 78.9 | 83.7 | 94.5 | 89.2 | 86.4 | 77.2 | 66.7 | 79.5 | 82.5 | 81.7 | 71.5 | 74.3 | 74.2 | 80.2 | 75.1 | 74.9 | 63.6 | 69.3
9 | O=C(c1ccc(C(=O)N2CCC(N3CCCC3)CC2)c(Nc2ccccc2)c1)N1CCC(N2CCCC2)CC1 | 103 | 103 | 103 | 106 | 108 | 102 | 106 | 109 | 98.9 | 96.5 | 94.5 | 104 | 95.3 | 93.7 | 101 | 98.1 | 100 | 95.8 | 97.4 | 100 | 92.1 | 95.4 | 98.3 | 97.5 | 95.9 | 96.3 | 100 | 101 | 103 | 101 | 91.1 | 86.1 | 96.1
10 | Clc1ccc(C(Cn2ccnc2)OCc2ccc(Sc3ccccc3)cc2)c(Cl)c1 (stereo not given) | 103 | 110 | 107 | 111 | 117 | 110 | 118 | 115 | 111 | 106 | 9.24 | 115 | 120 | 109 | 115 | 116 | 108 | 110 | 117 | 109 | 105 | 14.3 | 111 | 102 | 111 | 107 | 107 | 104 | 105 | 101 | 102 | 19.5 | 101
11 | Oc1ccc(C2CNCCc3c2cc(O)c(O)c3Cl)cc1 (stereo not given) | 92.6 | 92.3 | 86.9 | 97.7 | 92.7 | 98.5 | 92.4 | 95.7 | 96.1 | 100 | 99.4 | 87 | 98.4 | 95.8 | 96.8 | 86.5 | 98.8 | 90.3 | 98 | 96.1 | 103 | 101 | 90.3 | 93.3 | 80.2 | 86.9 | 84.7 | 96.9 | 86.1 | 88.5 | 94.1 | 92.7 | 90
12 | CCOC\1=C(/C(=O)NC2=CC=C(OC3=C(Cl)C(=NC=C3)N)C(=C2)F)C(=O)N(\C=C1)C4=CC=C(F)C=C4 | 107 | 110 | 102 | 115 | 104 | 101 | 94.7 | 91.3 | 93.8 | 81.2 | 27.4 | 99.2 | 104 | 111 | 98.5 | 102 | 102 | 96.1 | 95.2 | 97.7 | 80.1 | 30.9 | 106 | 101 | 104 | 104 | 102 | 91 | 99.7 | 81.9 | 91.8 | 28.1 | 68.5
13 | O=C(/C=C/c1cccnc1)NCCCCC1CCN(C(=O)c2ccccc2)CC1 | 103 | 72.1 | 15.1 | 7.38 | 5.18 | 4.94 | 4.8 | 4.59 | 4.4 | 4 | 2.9 | 103 | 109 | 16.9 | 6.84 | 5.28 | 5.01 | 4.19 | 4.32 | 3.69 | 2.71 | 1.74 | 102 | 109 | 24.4 | 8.02 | 5.06 | 4.88 | 4.59 | 4.67 | 3.92 | 2.11 | 2.96
14 | CNCCN(C)Cc1c[nH]nc1-c1ccc(O[C@H]2C[C@H](OCCC3CCOCC3)C2)cc1 | 104 | 120 | 124 | 119 | 122 | 122 | 135 | 123 | 95.1 | 90.1 | 118 |  |  |  |  |  |  |  |  |  |  |  |  |  |  |  |  |  |  |  |  |  | 
15 | COc1cc2nc(N3CCN(C(=O)c4ccco4)CC3)nc(N)c2cc1OC | 88.4 | 91.4 | 95 | 102 | 99 | 93.2 | 110 | 84.7 | 97.1 | 55.1 | 4.81 | 84.1 | 88.8 | 97.8 | 91.6 | 98.2 | 103 | 87 | 95 | 91.2 | 98.9 | 5.43 | 77.1 | 74.4 | 91 | 80.1 | 90.7 | 85.3 | 93.5 | 89.1 | 90.1 | 5.58 | 95.1
16 | CC(=O)[C@H]1CC[C@H]2[C@@H]3C/C=C4/C[C@@H](O)CC[C@]4(C)[C@H]3CC[C@]12C | 120 | 124 | 114 | 116 | 112 | 120 | 124 | 115 | 114 | 114 | 110 |  |  |  |  |  |  |  |  |  |  |  | 112 | 120 | 129 | 112 | 124 | 115 | 126 | 125 | 112 | 103 | 104
17 | CCN(CCO)CCCC(C)Nc1ccnc2cc(Cl)ccc12 (stereo not given) | 99.5 | 114 | 114 | 111 | 110 | 105 | 75.6 | 112 | 57.5 | 14.7 | 9.45 | 102 | 110 | 110 | 103 | 108 | 106 | 74.6 | 105 | 66.2 | 27.3 | 10.7 | 102 | 108 | 106 | 117 | 112 | 103 | 90.7 | 102 | 3.75 | 15.4 | 56.4
